# Reference: US11926645B2, “Compounds and methods for treatment of viral infections” (priority 2020, dated 2024)
# Where two headings read alike, the source gives them in different places.
# How the values were obtained:
# CES1 = target: T1, CES1 (Homo sapiens, UniProt P23141); test: CES1/2 stability, CES1; assay type: in vitro ADME; settings: CES1 Supersome preparation; Supersome preparations, CES 1.5 mg/ml, 2 μM substrate, pH 7.4, 37° C.; read-out: CES1 T1/2
# T1 construct: purchased
# T1 sequence (P23141 18-567): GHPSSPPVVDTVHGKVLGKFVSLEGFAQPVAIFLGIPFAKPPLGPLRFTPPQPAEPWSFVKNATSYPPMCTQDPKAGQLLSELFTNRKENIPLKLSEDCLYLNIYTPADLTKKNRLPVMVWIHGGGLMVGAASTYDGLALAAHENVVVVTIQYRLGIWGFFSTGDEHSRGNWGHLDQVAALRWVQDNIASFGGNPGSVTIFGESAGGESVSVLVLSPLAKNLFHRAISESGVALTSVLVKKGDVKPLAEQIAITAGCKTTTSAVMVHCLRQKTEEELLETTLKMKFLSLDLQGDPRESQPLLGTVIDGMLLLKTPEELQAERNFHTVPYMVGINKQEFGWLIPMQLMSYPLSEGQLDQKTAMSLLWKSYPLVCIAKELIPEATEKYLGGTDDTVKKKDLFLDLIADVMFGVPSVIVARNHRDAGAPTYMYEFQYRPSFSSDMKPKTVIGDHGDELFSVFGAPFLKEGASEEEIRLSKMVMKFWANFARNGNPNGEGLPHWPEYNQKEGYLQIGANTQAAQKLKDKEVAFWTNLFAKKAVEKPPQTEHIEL
# Procedure: Test compounds or positive control substrates (oseltamivir for CES1 enzymes or procaine for CES2) were incubated with individual Supersome preparations (final CES concentration 1.5 mg/ml) in 0.1 M potassium phosphate buffer (pH 7.4) at 37° C. Substrates were added to a final concentration of 2 μM to initiate the reaction. The final incubation volume was 250 μL. Aliquots were removed after incubation for 0, 10, 30, 60 and 120 min. The reactions were stopped by the addition of IS/Q. Following protein precipitation and centrifugation, 150 μL of supernatant was diluted with an equal volume of water prior to LC-MS analysis. For procaine 150 μL of supernatant was dried down and reconstituted with 250 μL water. All samples were analyzed by LC-MS and the PAR values were used for quantification.
# in vitro [1] = settings: hamster
# Plasma stability = settings: human
# SARS-CoV-2 (WA1) = assay type: in vivo, AGM
# in vitro [2] = assay type: in vitro ADME; settings: s9, pH 7.4
# Procedure: Duplicate aliquots of test compound or positive control substrate (GS-7340) were added to S9 stock diluted with 100 mM potassium phosphate buffer, pH 7.4, to obtain a protein concentration of 2.4 mg/mL. The S9 metabolic reactions were initiated by the addition of the substrates to the S9 reaction mixture to a final concentration of 2 μM. At 2, 12, 25, 45, 65 and 90 min, 25 μL aliquots of the reaction mixture were transferred to plates containing 225 μl of IS/Q solution. After quenching, the plates were centrifuged at 3000×g for 30 minutes, and 150 μl, aliquots of each supernatant were diluted with 150 μl, water. Aliquots (10 μL) of the diluted supernatant were analyzed on a Thermo Q-Exactive mass spectrometer as described below.
# Quantification of test compounds and controls was performed by analyte/internal standard peak area ratio (PAR) values measured on a Thermo Q-Exactive mass spectrometer coupled to a Dionex UltiMate 3000 HPLC with a Leap Technologies HTC PAL autosampler. The column used was a Thermo Hypersil GOLD (1.9 μm particle size, 2.1×50 mm). Mobile phase A consisted of 0.1% (v/v) formic acid in water. Mobile phase B consisted of 0.1% (v/v) formic acid in acetonitrile. Elution of analytes was achieved by a series of linear gradients of acetonitrile in water containing 0.1% (v/v) formic acid. The mass spectrometer was calibrated on a weekly basis and mass tolerance of 5 ppm was used.
# [3] = system: SARS-CoV-2 hCoV-19/Japan/TY7-503/2021 (BZ/2021); assay type: in vivo
# in vitro [4] = assay type: in vitro ADME, Human; settings: human, s9, pH 7.4
# Method in brief: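 Compound at 2 μM final was incubated with S9 fraction at 1.0 mg/mL protein in 100 mM PBS pH 7.4, in duplicate, with GS-7340 as positive control. Samples were taken at 0, 10, 20, 30, 60 and 120 min and quenched with internal standard. Remaining compound was quantified by LC-MS as analyte/internal-standard peak-area ratio.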
# SARS-CoV-2-Nluc viruses = test: microbe, parasite or virus in culture; assay type: cell-based
# [5] = system: RSV-Fluc (Respiratory Syncytial virus strain A2 containing the firefly luciferase reporter); test: microbe, parasite or virus in culture; assay type: cell-based; settings: human respiratory syncytial virus, 72 h, NHBE cells, three days
# [6] = in vivo, po
compound,measurement,setting,value
"CC(C)C(=O)OC[C@H]1O[C@@](C#N)(c2ccc3c(N)ncnn23)[C@H](OC(=O)C(C)C)[C@@H]1OC(=O)C(C)C [Compound 1, (2R,3R,4R,5R)-2-(4-aminopyrrolo[2,1-f][1,2,4]triazin-7-yl)-2-cyano-5-((isobutyryloxy)methyl)tetrahydrofuran-3,4-diyl bis(2-methylpropanoate)]",half-life at 2 μM,CES1,< 1 min
same,CC50,in vitro [1],> 100 µM
same,half-life at 2 μM,Plasma stability,5.5 min
same,Infectious SARS-CoV-2 titers versus vehicle,"SARS-CoV-2 (WA1); AGMs, PO 60 or 120 mg/kg QD, days 2-6",trended lower than the vehicle group
same,Viral RNA loads in lower lung tissue versus vehicle,"SARS-CoV-2 (WA1); AGMs, PO 60 or 120 mg/kg QD, terminal day 6",trended lower
same,mean SARS-CoV-2 gRNA in BALF versus vehicle,"SARS-CoV-2 (WA1); in vivo, po",significantly reduced
same,SARS-CoV-2 gRNA in BALF versus vehicle,"SARS-CoV-2 (WA1); in vivo, po, 60 mg/kg",significantly lower than vehicle animals
same,half-life at 2 μM,in vitro [2],2 min
same,Infectious viral particles in nasal turbinates of contact animals,"[3]; […], 5.5 days after initiation of co-housing",absent
same,Shedding of infectious particles or viral RNA by contacts of treated source ferrets,"[3]; […], source animals oral 10 mg/kg b.i.d.",None of the contacts of treated source ferrets shed infectious particles or viral RNA at any time
same,Viral RNA in nasal turbinates of the contact animals,[3]; in vivo,< 10^5 copies/g nasal turbinate
same,Lowering of viral RNA copies in nasal lavages and turbinates,"[3]; in vivo, po, 10 mg/kg",over three orders of magnitude
same,Shed virus burden (nasal lavage),"[3]; in vivo, po, 10 mg/kg",undetectable
same,Tissue titers (nasal turbinates),"[3]; in vivo, po, 10 mg/kg",undetectable
same,half-life at 2 μM,in vitro [4],0.37 min
same,EC50,"SARS-CoV-2-Nluc viruses; Severe acute respiratory syndrome coronavirus 2, 48 h, read-out: SARS-CoV2 EC50",2.7 µM
same,EC50,"SARS-CoV-2-Nluc viruses; Severe acute respiratory syndrome coronavirus 2, host cells A549-ACE2, read-out: EC50, WA1/2020-nano luciferase",0.98 µM
same,EC50,[5],0.389 µM
same,anabolism to bioactive Reference Compound B (in words),[6],efficient anabolism to bioactive Reference Compound B
